Data reported in patent publication US5104858A, “Sensitizing multidrug resistant cells to antitumor agents” (priority 1988, dated 1992).
pIC50: −log10 of the molar value.

system: L1210/DOX cells; assay: not given; details: Ganapathi and Grabowski; cited from earlier work

SMILES	sensitization of L1210/DOX cells
CC1CNCCN1S(=O)(=O)c1cccc2cnccc12 (centres unmarked) [H-7, 1-(5-isoquinolinylsulfonyl)-2-methylpiperazine]	failed to sensitize L1210/DOX cells

system: MCF-7/DOX cells; assay: Cellular accumulation of doxorubicin in MDR MCF-7/DOX cells; format: cell-based, human; details: 3 hours, 15 μM doxorubicin
Source text: Cellular content of doxorubicin was computed from standard curves prepared with known amounts of doxorubicin.

SMILES	doxorubicin accumulation, fold less in MCF-7/DOX than in sensitive cell line
COc1cccc2c1C(=O)c1c(O)c3c(c(O)c1C2=O)C[C@@](O)(C(=O)CO)C[C@@H]3O[C@H]1C[C@H](N)[C@H](O)[C@H](C)O1 [Doxorubicin]	approximately 10 fold

system: MCF-7/DOX cells; assay: Antagonism of multidrug resistance (sensitization to doxorubicin) in MCF-7/DOX cells, MDR Ratio; format: cell-based, human; details: not given

SMILES	sensitization of MCF-7/DOX cells to doxorubicin	anti-MDR activity, comparison in words
CN(C)CCCN1c2ccccc2Sc2ccc(Cl)cc21 [Chlorpromazine]	60%	–
CN(C)CCCN1c2ccccc2[S+]([O-])c2ccc(Cl)cc21 (centres unmarked) [Chlorpromazine Sulfoxide]	–	retained its effect against MDR

same assay, conditions: 48 h

SMILES	MDR Ratio (IC50 doxorubicin alone / IC50 doxorubicin in presence of modifier)
CN(C)CCCN1c2cc(O)ccc2Sc2cc(O)c(Cl)cc21 [3,8-Dihydroxychlorpromazine]	0.9
CN(C)CCCN1c2ccccc2Sc2c(Cl)cccc21 [4-Chlorpromazine]	1.4
CN(C)CCCN1c2ccc(O)cc2Sc2ccc(Cl)cc21 [7-Hydroxychlorpromazine]	1.0
NCCCN1c2ccccc2Sc2ccc(Cl)cc21 [Didesmethylchlorpromazine]	1.1
CN(C)CCCCN1c2ccccc2Sc2ccc(Cl)cc21 [2-Chloro-10-[4-(dimethylamino)butyl] phenothiazine]	2.0
CSc1ccc2c(c1)N(CCCN(C)C)c1ccccc1S2 [Thiomethylpromazine]	1.5
CCN(CC)CCCC(C)Nc1c2ccc(Cl)cc2nc2ccc(OC)cc12 (centres unmarked) [Quinacrine]	1.3
CNCCCN1c2ccccc2Sc2ccc(Cl)cc21 [Desmethylchlorpromazine]	1.2
OC1(c2ccc(Cl)c(C(F)(F)F)c2)CCN(CCCC(c2ccc(F)cc2)c2ccc(F)cc2)CC1 [Penfluridol]	2.0

system: MCF-7/DOX cells; assay: Inhibition of MCF-7/DOX cell growth, microtiter methylene blue staining assay, 48 h; format: cell-based, human; details: not given

SMILES	inhibition of cell growth, comparison in words
CN(C)CCCN1c2ccccc2[S+]([O-])c2ccc(Cl)cc21 (centres unmarked) [Chlorpromazine Sulfoxide]	lost most of its antiproliferative effect

same assay, conditions: Homo sapiens, MCF7-DOX, 48 h, MCF-7/DOX cells, 48 h, drug alone; read-out: IC50 for cell growth inhibition

SMILES	pIC50
CN(C)CCCN1c2cc(O)ccc2Sc2cc(O)c(Cl)cc21 [3,8-Dihydroxychlorpromazine]	3.40
CN(C)CCCN1c2ccccc2Sc2c(Cl)cccc21 [4-Chlorpromazine]	4.82
CN(C)CCCN1c2ccc(O)cc2Sc2ccc(Cl)cc21 [7-Hydroxychlorpromazine]	4.30
NCCCN1c2ccccc2Sc2ccc(Cl)cc21 [Didesmethylchlorpromazine]	4.92 to 5.10
CN(C)CCCCN1c2ccccc2Sc2ccc(Cl)cc21 [2-Chloro-10-[4-(dimethylamino)butyl] phenothiazine]	5.15
CSc1ccc2c(c1)N(CCCN(C)C)c1ccccc1S2 [Thiomethylpromazine]	4.70
CNCCCN1c2ccccc2Sc2ccc(Cl)cc21 [Desmethylchlorpromazine]	4.92 to 5.10

same assay, conditions: Homo sapiens, MCF7-DOX, 48 h, MCF-7/DOX cells, 48 h, structurally related compounds; read-out: Cell Growth Inhibition IC50 (Table 5)

SMILES	pIC50
CCN(CC)CCCC(C)Nc1c2ccc(Cl)cc2nc2ccc(OC)cc12 (centres unmarked) [Quinacrine]	5.52
OC1(c2ccc(Cl)c(C(F)(F)F)c2)CCN(CCCC(c2ccc(F)cc2)c2ccc(F)cc2)CC1 [Penfluridol]	5.52

same assay, conditions: Homo sapiens, MCF7-DOX, 48 h, read-out: IC50 for cell growth inhibition

SMILES	pIC50
COc1cccc2c1C(=O)c1c(O)c3c(c(O)c1C2=O)C[C@@](O)(C(=O)CO)C[C@@H]3O[C@H]1C[C@H](N)[C@H](O)[C@H](C)O1 [Doxorubicin]	4.92
CN(C)CCCN1c2ccccc2[S+]([O-])c2ccc(Cl)cc21 (centres unmarked) [Chlorpromazine Sulfoxide]	3.30

same assay, conditions: Homo sapiens, MCF7-DOX, 48 h; read-out: IC50 for cell growth inhibition

SMILES	pIC50
CN(C)CCCN1c2ccccc2Sc2ccc(Cl)cc21 [Chlorpromazine]	5.10

same assay, conditions: MCF-7/DOX cells, 48 h, drug alone; listed as desmethylchlorpromazine; read-out: IC50 for cell growth inhibition

SMILES	pIC50
CNCCCN1c2ccccc2Sc2ccc(Cl)cc21 [Desmethylchlorpromazine]	5.10

same assay, conditions: MCF-7/DOX cells, 48 h, drug alone; read-out: IC50 for cell growth inhibition

SMILES	pIC50
NCCCN1c2ccccc2Sc2ccc(Cl)cc21 [Didesmethylchlorpromazine]	4.96
CNCCCN1c2ccccc2Sc2ccc(Cl)cc21 [Desmethylchlorpromazine]	5.10

same assay, conditions: human, mcf-7/dox cells

SMILES	resistance to doxorubicin of MCF-7/DOX cells relative to parental cell line
COc1cccc2c1C(=O)c1c(O)c3c(c(O)c1C2=O)C[C@@](O)(C(=O)CO)C[C@@H]3O[C@H]1C[C@H](N)[C@H](O)[C@H](C)O1 [Doxorubicin]	approximately 200 fold

same assay, conditions: read-out: IC50 for cell growth inhibition

SMILES	pIC50
CN(C)CCCN1c2ccccc2Sc2ccc(Cl)cc21 [Chlorpromazine]	4.92 to 5.10

same assay, conditions: versus chlorpromazine

SMILES	relative potency in inhibiting cell growth (fold less potent)
CN(C)CCCN1c2ccc(O)cc2Sc2ccc(Cl)cc21 [7-Hydroxychlorpromazine]	6 fold

system: not given; assay: not given; details: Norman and Drummond; cited from earlier work

SMILES	octanol:buffer partition coefficient (log P)
CN(C)CCCN1c2ccccc2Sc2ccc(Cl)cc21 [Chlorpromazine]	4.04

biological target: Calmodulin (Bos taurus, UniProt P62157); assay: biochemical; details: not given

SMILES	pIC50
CN(C)CCCN1c2cc(O)ccc2Sc2cc(O)c(Cl)cc21 [3,8-Dihydroxychlorpromazine]	3.74
CN(C)CCCN1c2ccccc2Sc2c(Cl)cccc21 [4-Chlorpromazine]	4.60
CN(C)CCCN1c2ccc(O)cc2Sc2ccc(Cl)cc21 [7-Hydroxychlorpromazine]	4.17
CN(C)CCCN1c2ccccc2[S+]([O-])c2ccc(Cl)cc21 (centres unmarked) [Chlorpromazine Sulfoxide]	2.66
NCCCN1c2ccccc2Sc2ccc(Cl)cc21 [Didesmethylchlorpromazine]	4.42
CN(C)CCCCN1c2ccccc2Sc2ccc(Cl)cc21 [2-Chloro-10-[4-(dimethylamino)butyl] phenothiazine]	4.40
CSc1ccc2c(c1)N(CCCN(C)C)c1ccccc1S2 [Thiomethylpromazine]	4.38
CCN(CC)CCCC(C)Nc1c2ccc(Cl)cc2nc2ccc(OC)cc12 (centres unmarked) [Quinacrine]	4.38
CNCCCN1c2ccccc2Sc2ccc(Cl)cc21 [Desmethylchlorpromazine]	4.35
OC1(c2ccc(Cl)c(C(F)(F)F)c2)CCN(CCCC(c2ccc(F)cc2)c2ccc(F)cc2)CC1 [Penfluridol]	5.52

system: KC/ADR10 human breast cells; assay: not given; details: Ahn et al; cited from earlier work

SMILES	sensitization of KC/ADR10 human breast cells
CC1CNCCN1S(=O)(=O)c1cccc2cnccc12 (centres unmarked) [H-7, 1-(5-isoquinolinylsulfonyl)-2-methylpiperazine]	does sensitize KC/ADR10 human breast cells
